Results taken from patent US8846638B2, “Macrocyclic nucleoside phosphoramidate derivatives” (Enanta Pharmaceuticals, Inc., priority 2012, dated 2014).

Columns and labels:
[1] = system: HCV 1a genotype replicon (strain H77, Huh-1a7 cell line); test: HCV replicon assay, qRT-PCR, genotype 1a (Huh-1a7 cells); format: cell-based; conditions: Hepatitis C virus; Genotype-1a replicon, HCV RNA by qRT-PCR normalized to GAPDH RNA
Source text: (§1) HCV replicon cell lines (kindly provided by R. Bartenschlager) isolated from colonies as described by Lohman et al. (Lohman et al. (1999) Science 285: 110-113, expressly incorporated by reference in its entirety) and used for all experiments. One of the HCV replicon cell lines (strain Con1, genotype 1b) has the nucleic acid sequence set forth in EMBL Accession No.: AJ242651, the coding sequence of which is from nucleotides 1801 to 8406. Another replicon cell line (strain H77, genotype 1a) was constructed as described by Yi et. al. (Yi et. al. (2004) Journal of Virology 78(15):7904-15). The coding sequences of the published HCV replicons were synthesized and subsequently assembled in plasmids using standard molecular biology techniques.
(§2) One replicon cell line (“SGR 11-7”) stably expresses HCV replicon RNA, genotype 1b, which consists of (i) the HCV 5′UTR fused to the first 12 amino acids of the capsid protein, (ii) the neomycin phosphotransferase gene (neo), (iii) the IRES from encephalomyocarditis virus (EMCV) and (iv) HCV […] to NS5B genes and the HCV 3′UTR. Another replicon cell line (“Huh-1a7”) described by Yi et. al. (Yi et. al. (2004) Journal of Virology 78(15):7904-15, expressly incorporated by reference in its entirety) stably expresses HCV replicon RNA, genotype 1a, which consists of (i) the HCV 5′UTR fused to the first 12 amino acids of the capsid protein, (ii) the HIV tat protein, (iii) the neomycin phosphotransferase gene (neo), (iv) the IRES from encephalomyocarditis virus (EMCV) and (vi) HCV NS3 to NS5B genes that harbor cell culture adaptive mutations (Q1067R, K1691R, S2204I) and the HCV 3′UTR.
(§3) These cell lines are maintained at 37° C., 5% CO2, 100% relative humidity in DMEM (Cat#11965-084, Invitrogen), with 10% fetal calf serum (“FCS”, Invitrogen), 1% non-essential amino acids (Invitrogen), 1% of Glutamax (Invitrogen), 1% of 10× penicillin/streptomycin (Cat#15140-122, Invitrogen) and Geneticin (Cat#10131-027, Invitrogen) at 0.75 mg/ml or 0.25 mg/ml for 11-7 and Huh-1a7 cells, respectively.
(§4) EC50 values of single agent compounds were determined by HCV RNA detection using quantitative RT-PCR, according to the manufacturer's instructions, with a TAQMAN® One-Step RT-PCR Master Mix Reagents Kit (Cat#AB 4309169, Applied Biosystems) on an ABI Model 7500 thermocycler. EC50 values of combinations are similarly determined by HCV RNA detection using quantitative RT-PCR. The TAQMAN primers to use for detecting and quantifying HCV RNA obtained from Integrated DNA Technologies. HCV RNA is normalized to GAPDH RNA levels in drug-treated cells, which is detected and quantified using the Human GAPDH Endogenous Control Mix (Applied Biosystems, AB 4310884E). Total cellular RNA is purified from 96-well plates using the RNAqueous 96 kit (Ambion, Cat#AM1812). Chemical agent cytotoxicity is evaluated using an MTS assay according to the manufacturer's directions (Promega).
(§5) The compounds of the present invention can be effective against the HCV 1a and 1b genotypes. It should also be understood that the compounds of the present invention can inhibit multiple genotypes of HCV. In one embodiment, compounds of the present invention are active against the 1a, 1b, 2a, 2b, 3a, 4a, and 5a genotypes. […] EC50 ranges against HCV 1a or 1b are as follows: A>1 μM; B 0.1-1 μM; C<0.1 μM.

[2] = system: HCV 1b genotype replicon (strain Con1, SGR 11-7 cell line); test: HCV replicon assay, qRT-PCR, genotype 1b (SGR 11-7 cells); format: cell-based; conditions: Hepatitis C virus; Genotype-1b replicon, HCV RNA by qRT-PCR normalized to GAPDH RNA
Source text: as §1, §2, §3, §4, §5

Compound	EC50 [1]	EC50 [2]
C[C@@H]1NP(=O)(Oc2cccc3ccccc23)OCC2OC(n3cnc4c(nc(N)nc43)OCCCCCCCOC1=O)[C@](C)(O)[C@@H]2O (stereo partly shown) [Example 3]	< 100 nM	100 to 1000 nM
CC(C)C[C@@H]1NP(=O)(Oc2cccc3ccccc23)OCC2OC(n3cnc4c(nc(N)nc43)OCCCCCCCOC1=O)[C@](C)(O)[C@@H]2O (stereo partly shown) [Example 4]	100 to 1000 nM	> 1000 nM
C[C@@H]1NP(=O)(Oc2cccc3ccccc23)OCC2OC(n3cnc4c(nc(N)nc43)OCCCCCCOC1=O)[C@](C)(O)[C@@H]2O (stereo partly shown) [Example 7]	< 100 nM	100 to 1000 nM
C[C@@H]1NP(=O)(Oc2cccc3ccccc23)OCC2OC(n3cnc4c(nc(N)nc43)OCCCCC(F)(F)COC1=O)[C@](C)(O)[C@@H]2O (stereo partly shown) [Example 2]	100 to 1000 nM	100 to 1000 nM
C[C@@H]1NP(=O)(Oc2cccc3ccccc23)OCC2OC(n3cnc4c(nc(N)nc43)OCCCCCOCCCOC1=O)[C@](C)(O)[C@@H]2O (stereo partly shown) [Example 5]	100 to 1000 nM	> 1000 nM
C[C@@H]1NP(=O)(Oc2cccc3ccccc23)OCC2OC(n3cnc4c(nc(N)nc43)OCCC=CCCCOC1=O)[C@](C)(O)[C@@H]2O (stereo partly shown) [Example 10]	100 to 1000 nM	100 to 1000 nM
C[C@@H]1NP(=O)(Oc2ccccc2)OCC2OC(n3cnc4c(nc(N)nc43)OCCCCCCCCOC1=O)[C@](C)(O)[C@@H]2O (stereo partly shown) [Example 9]	100 to 1000 nM	100 to 1000 nM
C[C@@H]1NP(=O)(Oc2ccccc2)OCC2OC(n3cnc4c(nc(N)nc43)OCCCCCCCOC1=O)[C@](C)(O)[C@@H]2O (stereo partly shown) [Example 8]	100 to 1000 nM	100 to 1000 nM
